# Data: patent US11857519B2, “Compounds and methods for the targeted degradation of enhancer of zeste homolog 2 polypeptide” (Arvinas Operations, Inc., priority 2016, dated 2024)
# Target: T1, EZH2 (Homo sapiens, UniProt Q15910)
# T1 construct: Protocol of the Cellular Assay of Target Protein Degradation (VCaP Cells, ELISA); endogenous in cells; host or cells: VCaP cells
# Assay: Cellular assay of target protein degradation (VCaP cells, ELISA)
# Assay type: cell-based
# Conditions: 4 hours, protein degradation range at indicated concentration (relative to DMSO control)
# Procedure, shortened: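 VCaP cells grown ≥3 days in RPMI with 5% CSS, then dosed with compounds in 0.1% DMSO for 4 h. Lysates analysed by sandwich ELISA for EZH2 with TMB readout at 450 nm, 562 nm used for background subtraction.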
# T1 sequence (Q15910 whole entry): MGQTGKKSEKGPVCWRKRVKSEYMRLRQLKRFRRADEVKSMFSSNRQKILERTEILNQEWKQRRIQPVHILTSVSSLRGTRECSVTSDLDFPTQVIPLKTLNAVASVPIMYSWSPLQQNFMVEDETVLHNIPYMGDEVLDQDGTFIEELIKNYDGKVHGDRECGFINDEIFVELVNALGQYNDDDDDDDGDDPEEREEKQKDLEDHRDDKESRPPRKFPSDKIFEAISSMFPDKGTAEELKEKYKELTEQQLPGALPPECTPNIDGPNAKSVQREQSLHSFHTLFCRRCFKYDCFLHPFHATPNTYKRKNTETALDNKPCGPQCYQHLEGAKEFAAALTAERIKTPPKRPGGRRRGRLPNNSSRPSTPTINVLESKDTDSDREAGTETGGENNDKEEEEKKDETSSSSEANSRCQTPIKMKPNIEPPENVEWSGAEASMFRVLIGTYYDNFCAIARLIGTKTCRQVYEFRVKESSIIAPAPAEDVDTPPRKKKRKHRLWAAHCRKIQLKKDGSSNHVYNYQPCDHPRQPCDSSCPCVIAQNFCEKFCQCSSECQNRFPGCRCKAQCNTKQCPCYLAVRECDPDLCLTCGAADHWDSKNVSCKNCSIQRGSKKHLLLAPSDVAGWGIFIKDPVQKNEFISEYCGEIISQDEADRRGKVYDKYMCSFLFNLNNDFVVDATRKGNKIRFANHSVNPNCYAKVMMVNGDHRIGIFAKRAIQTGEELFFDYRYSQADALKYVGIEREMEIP
# T1 sequence (O75530 whole entry partner): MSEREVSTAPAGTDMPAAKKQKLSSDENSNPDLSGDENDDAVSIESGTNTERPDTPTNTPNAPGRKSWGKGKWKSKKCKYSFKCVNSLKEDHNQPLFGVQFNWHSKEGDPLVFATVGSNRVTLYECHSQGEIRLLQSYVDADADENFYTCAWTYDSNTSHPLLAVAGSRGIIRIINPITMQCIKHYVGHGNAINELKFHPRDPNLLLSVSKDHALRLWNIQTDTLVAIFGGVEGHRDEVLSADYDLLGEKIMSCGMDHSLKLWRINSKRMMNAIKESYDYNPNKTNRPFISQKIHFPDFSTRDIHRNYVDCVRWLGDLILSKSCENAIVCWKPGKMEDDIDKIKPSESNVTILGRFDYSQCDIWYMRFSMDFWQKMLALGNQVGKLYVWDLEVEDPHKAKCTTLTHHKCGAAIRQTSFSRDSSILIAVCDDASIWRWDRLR
# T1 sequence (Q15022 whole entry partner): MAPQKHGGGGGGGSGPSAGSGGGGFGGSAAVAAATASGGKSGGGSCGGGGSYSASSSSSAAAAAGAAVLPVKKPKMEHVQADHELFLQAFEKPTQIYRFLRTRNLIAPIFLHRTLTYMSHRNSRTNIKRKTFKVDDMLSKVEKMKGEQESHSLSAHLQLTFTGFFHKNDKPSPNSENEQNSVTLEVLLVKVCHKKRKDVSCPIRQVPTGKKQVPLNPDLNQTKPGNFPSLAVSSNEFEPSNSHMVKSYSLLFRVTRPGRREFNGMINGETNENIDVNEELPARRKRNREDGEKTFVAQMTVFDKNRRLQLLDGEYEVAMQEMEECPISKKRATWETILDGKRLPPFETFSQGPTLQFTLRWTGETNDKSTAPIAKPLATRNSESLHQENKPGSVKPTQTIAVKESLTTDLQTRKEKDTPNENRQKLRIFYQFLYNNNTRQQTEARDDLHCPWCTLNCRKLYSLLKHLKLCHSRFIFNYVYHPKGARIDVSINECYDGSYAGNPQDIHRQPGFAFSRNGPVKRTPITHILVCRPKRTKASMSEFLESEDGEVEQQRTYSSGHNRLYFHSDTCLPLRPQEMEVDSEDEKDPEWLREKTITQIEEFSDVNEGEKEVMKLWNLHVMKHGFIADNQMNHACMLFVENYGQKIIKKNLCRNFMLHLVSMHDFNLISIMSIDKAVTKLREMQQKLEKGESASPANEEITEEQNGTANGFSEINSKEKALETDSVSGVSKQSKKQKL
row,SMILES,percent target protein degradation class
1,"CCN(c1cc(-c2ccc(OCCCCOCCOc3cc(-c4scnc4C)ccc3CNC(=O)[C@@H]3C[C@@H](O)CN3C(=O)[C@H](C(C)C)N3Cc4ccccc4C3=O)cc2)cc(C(=O)NCc2c(C)cc(C)[nH]c2=O)c1C)C1CCOCC1 [Compound 53, (2S,4R)-N-{[2-(2-{4-[4-(3-{[(4,6-dimethyl-2-oxo-1,2-dihydropyridin-3-yl)methyl]carbamoyl}-5-[ethyl(oxan-4-yl)amino]-4-methylphenyl)phenoxy]butoxy}ethoxy)-4-(4-methyl-1,3-thiazol-5-yl)phenyl]methyl}-4-hydroxy-1-[(2S)-3-methyl-2-(1-oxo-2,3-dihydro-1H-isoindol-2-yl)butanoyl]pyrrolidine-2-carboxamide]",B (B = degradation between 30% and 60%)
2,"Cc1cc(C)c(CNC(=O)c2cc(-c3ccc(CN4CCN(CCOCCCCOCC(=O)N[C@H](C(=O)N5C[C@H](O)C[C@H]5C(=O)NCc5ccc(-c6scnc6C)cc5)C(C)(C)C)CC4)cc3)cc3c2ccn3C2CCCC2)c(=O)[nH]1 [Compound 3, 1-cyclopentyl-N-[(4,6-dimethyl-2-oxo-1,2-dihydropyridin-3-yl)methyl]-6-{4-[(4-{2-[4-({[(2S)-1-[(2S,4R)-4-hydroxy-2-({[4-(4-methyl-1,3-thiazol-5-yl)phenyl]methyl}carbamoyl)pyrrolidin-1-yl]-3,3-dimethyl-1-oxobutan-2-yl]carbamoyl}methoxy)butoxy]ethyl}piperazin-1-yl)methyl]phenyl}-1H-indole-4-carboxamide]",B (B = degradation between 30% and 60%)
3,"CCN(c1cc(-c2ccc(CN3CCN(CCOCCOCC(=O)N[C@H](C(=O)N4C[C@H](O)C[C@H]4C(=O)N[C@@H](C)c4ccc(-c5scnc5C)cc4)C(C)(C)C)CC3)cc2)cc(C(=O)NCc2c(C)cc(C)[nH]c2=O)c1C)C1CCOCC1 [Compound 114, (2S,4R)-1-((S)-2-(2-(2-(2-(4-((3′-(((4,6-dimethyl-2-oxo-1,2-dihydropyridin-3-yl)methyl)carbamoyl)-5′-(ethyl(tetrahydro-2H-pyran-4-yl)amino)-4′-methyl-[1,1′-biphenyl]-4-yl)methyl)piperazin-1-yl)ethoxy)ethoxy)acetamido)-3,3-dimethylbutanoyl)-4-hydroxy-N-((S)-1-(4-(4-methylthiazol-5-yl)phenyl)ethyl)pyrrolidine-2-carboxamide]",A (A = degradation more than 60%)
4,CCN(c1cc(-c2ccc(OCCOCCOCC(=O)N[C@H](C(=O)N3C[C@H](O)C[C@H]3C(=O)NCc3ccc(-c4scnc4C)cc3)C(C)(C)C)cc2)cc(C(=O)NCc2c(C)cc(C)[nH]c2=O)c1C)C1CCOCC1 [Compound 31],A (A = degradation more than 60%)
5,"CCN(c1cc(-c2ccc(OCCOCCOCCOCCOCCOCCOCCOCCOCCNc3cccc4c3C(=O)N(C3CCC(=O)NC3=O)C4=O)cc2)cc(C(=O)NCc2c(C)cc(C)[nH]c2=O)c1C)C1CCOCC1 (stereo not drawn) [Compound 23, N-[(4,6-dimethyl-2-oxo-1,2-dihydropyridin-3-yl)methyl]-5-[4-({l-[2-(2,6-dioxopiperidin-3-yl)-1,3-dioxo-2,3-dihydro-1H-isoindol-4-yl]-4,7,10,13,16,19,22,25-octaoxa-1-azaheptacosan-27-yl}oxy)phenyl]-3-[ethyl(oxan-4-yl)amino]-2-methylbenzamide]",B (B = degradation between 30% and 60%)
6,"CCN(c1cc(-c2ccc(CN3CCN(CCOCC(=O)N[C@H](C(=O)N4C[C@H](O)C[C@H]4C(=O)N[C@@H](C)c4ccc(-c5scnc5C)cc4)C(C)(C)C)CC3)cc2)cc(C(=O)NCc2c(C)cc(C)[nH]c2=O)c1C)C1CCOCC1 [Compound 116, (2S,4R)-1-((S)-2-(2-(2-(4-((3′-(((4,6-dimethyl-2-oxo-1,2-dihydropyridin-3-yl)methyl)carbamoyl)-5′-(ethyl(tetrahydro-2H-pyran-4-yl)amino)-4′-methyl-[1,1′-biphenyl]-4-yl)methyl)piperazin-1-yl)ethoxy)acetamido)-3,3-dimethylbutanoyl)-4-hydroxy-N-((S)-1-(4-(4-methylthiazol-5-yl)phenyl)ethyl)pyrrolidine-2-carboxamide]",A (A = degradation more than 60%)
7,"CCN(c1cc(-c2ccc(OCCOCCOCC(=O)N[C@H](C(=O)N3C[C@H](O)C[C@H]3C(=O)N[C@@H](C)c3ccc(-c4scnc4C)cc3)C(C)(C)C)cc2)cc(C(=O)NCc2c(C)cc(C)[nH]c2=O)c1C)C1CCOCC1 [Compound 43, (2S,4R)-1-[(2S)-2-[2-(2-{2-[4-(3-{[(4,6-dimethyl-2-oxo-1,2-dihydropyridin-3-yl)methyl]carbamoyl}-5-[ethyl(oxan-4-yl)amino]-4-methylphenyl)phenoxy]ethoxy}ethoxy)acetamido]-3,3-dimethylbutanoyl]-4-hydroxy-N-[(1S)-1-[4-(4-methyl-1,3-thiazol-5-yl)phenyl]ethyl]pyrrolidine-2-carboxamide]",A (A = degradation more than 60%)
8,"CCN(c1cc(-c2ccc(OCCCOCC(=O)N[C@H](C(=O)N3C[C@H](O)C[C@H]3C(=O)NCc3ccc(-c4scnc4C)cc3)C(C)(C)C)cc2)cc(C(=O)NCc2c(C)cc(C)[nH]c2=O)c1C)C1CCOCC1 [Compound 41, (2S,4R)-1-[(2S)-2-(2-{3-[4-(3-{[(4,6-dimethyl-2-oxo-1,2-dihydropyridin-3-yl)methyl]carbamoyl}-5-[ethyl(oxan-4-yl)amino]-4-methylphenyl)phenoxy]propoxy}acetamido)-3,3-dimethylbutanoyl]-4-hydroxy-N-{[4-(4-methyl-1,3-thiazol-5-yl)phenyl]methyl}pyrrolidine-2-carboxamide]",A (A = degradation more than 60%)
9,"CCN(c1cc(-c2ccc(OCCOCCOCCOCCOc3cc(-c4scnc4C)ccc3CNC(=O)[C@@H]3C[C@@H](O)CN3C(=O)[C@H](C(C)C)N3Cc4ccccc4C3=O)cc2)cc(C(=O)NCc2c(C)cc(C)[nH]c2=O)c1C)C1CCOCC1 [Compound 36, (2S,4R)-N-{[2-({1-[4-(3-{[(4,6-dimethyl-2-oxo-1,2-dihydropyridin-3-yl)methyl]carbamoyl}-5-[ethyl(oxan-4-yl)amino]-4-methylphenyl)phenyl]-1,4,7,10-tetraoxadodecan-12-yl}oxy)-4-(4-methyl-1,3-thiazol-5-yl)phenyl]methyl}-4-hydroxy-1-[(2S)-3-methyl-2-(1-oxo-2,3-dihydro-1H-isoindol-2-yl)butanoyl]pyrrolidine-2-carboxamide]",B (B = degradation between 30% and 60%)
10,"CCN(c1cc(-c2ccc(OCCOCCCCCOc3cc(-c4scnc4C)ccc3CNC(=O)[C@@H]3C[C@@H](O)CN3C(=O)[C@H](C(C)C)N3Cc4ccccc4C3=O)cc2)cc(C(=O)NCc2c(C)cc(C)[nH]c2=O)c1C)C1CCOCC1 [Compound 49, (2S,4R)-N-({2-[(5-{2-[4-(3-{[(4,6-dimethyl-2-oxo-1,2-dihydropyridin-3-yl)methyl]carbamoyl}-5-[ethyl(oxan-4-yl)amino]-4-methylphenyl)phenoxy]ethoxy}pentyl)oxy]-4-(4-methyl-1,3-thiazol-5-yl)phenyl}methyl)-4-hydroxy-1-[(2S)-3-methyl-2-(1-oxo-2,3-dihydro-1H-isoindol-2-yl)butanoyl]pyrrolidine-2-carboxamide]",B (B = degradation between 30% and 60%)
